The target in one experiment is EGFR del19/T790M/C797S (Homo sapiens, UniProt P00533, C797S/DEL746-750/T790M). Description: Biochemical EGFR kinase assay (Lance Ultra TR-FRET), del19/T790M/C797S. In a few lines:
(§1)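 In this biochemical assay, phosphorylation after a one-hour room-temperature reaction was detected with europium-labelled anti-phosphopeptide antibody at 2 nM final concentration.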

Another experiment deals with EGFR L858R/T790M/C797S (Homo sapiens, UniProt P00533, C797S/L858R/T790M). Nature of the experiment: Biochemical EGFR kinase assay (Lance Ultra TR-FRET), L858R/T790M/C797S. The method, boiled down:
as §1

Another experiment concerns the target EGFR del19/C797S (Homo sapiens, UniProt P00533, C797S/DEL746-750). Description: Biochemical EGFR kinase assay (Lance Ultra TR-FRET), del19/C797S. The method, boiled down:
as §1
A general note: In TR-FRET formats the signal depends on donor and acceptor labels being close together.

The target in another experiment is EGFR L858R/C797S (Homo sapiens, UniProt P00533, C797S/L858R). Description: Biochemical EGFR kinase assay (Lance Ultra TR-FRET), L858R/C797S. In a few lines:
as §1

The target in the next experiment is EGFR wildtype (WT) (Homo sapiens, UniProt P00533). Description: Biochemical EGFR kinase assay (Lance Ultra TR-FRET), wildtype. In a few lines:
as §1

Where [1] appears, read: IC50 del19/T790M/C797S (nM) 100 μM ATP, 100 μM ATP.
Setting [2] is: IC50 L858R/T790M/C797S (nM) 100 μM ATP, 100 μM ATP.
[3] abbreviates: IC50 del19/C797S (nM) 100 μM ATP, 100 μM ATP.
The mark [4] stands for this setting: IC50 L858R/C797S (nM) 100 μM ATP, 100 μM ATP.
Setting [5] is: IC50 WT (nM) 100 μM ATP, 100 μM ATP.
Where [6] appears, read: Km ATP, read-out: IC50 del19/T790M/C797S (nM) Km ATP.
The mark [7] stands for this setting: Km ATP, read-out: IC50 L858R/T790M/C797S (nM) Km ATP.
The mark [8] stands for this setting: Km ATP, read-out: IC50 del19/C797S (nM) Km ATP.
Setting [9] is: Km ATP, read-out: IC50 L858R/C797S (nM) Km ATP.
Setting [10] is: Km ATP, read-out: IC50 WT (nM) Km ATP.

Where two headings read alike, the source gives them in different places.

Chain of EGFR del19/C797S (P00533 with tags, fused parts or gaps DEL746-750/C797S): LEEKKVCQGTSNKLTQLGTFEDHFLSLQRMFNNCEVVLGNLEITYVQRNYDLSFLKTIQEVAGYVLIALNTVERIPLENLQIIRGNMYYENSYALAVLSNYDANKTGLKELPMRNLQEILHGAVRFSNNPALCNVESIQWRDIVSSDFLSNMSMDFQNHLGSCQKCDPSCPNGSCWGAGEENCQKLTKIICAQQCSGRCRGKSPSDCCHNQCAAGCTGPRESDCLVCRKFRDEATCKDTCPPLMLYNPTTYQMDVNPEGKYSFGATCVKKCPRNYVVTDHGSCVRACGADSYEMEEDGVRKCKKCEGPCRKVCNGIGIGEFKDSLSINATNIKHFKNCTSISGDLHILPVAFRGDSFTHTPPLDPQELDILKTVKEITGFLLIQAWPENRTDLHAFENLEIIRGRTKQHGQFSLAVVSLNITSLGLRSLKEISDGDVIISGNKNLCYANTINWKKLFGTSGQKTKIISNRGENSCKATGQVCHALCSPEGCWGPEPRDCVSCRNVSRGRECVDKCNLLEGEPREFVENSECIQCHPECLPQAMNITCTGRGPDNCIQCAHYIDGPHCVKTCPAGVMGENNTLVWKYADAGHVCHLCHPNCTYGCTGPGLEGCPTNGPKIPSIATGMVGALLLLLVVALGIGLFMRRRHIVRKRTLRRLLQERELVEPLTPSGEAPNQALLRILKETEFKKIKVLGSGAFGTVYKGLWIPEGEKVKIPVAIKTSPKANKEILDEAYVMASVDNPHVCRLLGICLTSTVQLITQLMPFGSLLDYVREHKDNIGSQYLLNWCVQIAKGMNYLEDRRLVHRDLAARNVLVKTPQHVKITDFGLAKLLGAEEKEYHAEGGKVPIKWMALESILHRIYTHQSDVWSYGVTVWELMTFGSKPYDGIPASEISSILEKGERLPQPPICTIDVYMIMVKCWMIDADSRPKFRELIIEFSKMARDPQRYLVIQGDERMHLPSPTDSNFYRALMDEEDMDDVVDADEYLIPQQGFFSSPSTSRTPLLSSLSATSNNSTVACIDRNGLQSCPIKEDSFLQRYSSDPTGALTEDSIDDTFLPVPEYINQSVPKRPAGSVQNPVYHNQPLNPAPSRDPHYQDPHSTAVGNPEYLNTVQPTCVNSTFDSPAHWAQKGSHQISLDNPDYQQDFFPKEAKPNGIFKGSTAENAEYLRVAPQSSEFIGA
Chain of EGFR wildtype (WT) (P00533 25-1210): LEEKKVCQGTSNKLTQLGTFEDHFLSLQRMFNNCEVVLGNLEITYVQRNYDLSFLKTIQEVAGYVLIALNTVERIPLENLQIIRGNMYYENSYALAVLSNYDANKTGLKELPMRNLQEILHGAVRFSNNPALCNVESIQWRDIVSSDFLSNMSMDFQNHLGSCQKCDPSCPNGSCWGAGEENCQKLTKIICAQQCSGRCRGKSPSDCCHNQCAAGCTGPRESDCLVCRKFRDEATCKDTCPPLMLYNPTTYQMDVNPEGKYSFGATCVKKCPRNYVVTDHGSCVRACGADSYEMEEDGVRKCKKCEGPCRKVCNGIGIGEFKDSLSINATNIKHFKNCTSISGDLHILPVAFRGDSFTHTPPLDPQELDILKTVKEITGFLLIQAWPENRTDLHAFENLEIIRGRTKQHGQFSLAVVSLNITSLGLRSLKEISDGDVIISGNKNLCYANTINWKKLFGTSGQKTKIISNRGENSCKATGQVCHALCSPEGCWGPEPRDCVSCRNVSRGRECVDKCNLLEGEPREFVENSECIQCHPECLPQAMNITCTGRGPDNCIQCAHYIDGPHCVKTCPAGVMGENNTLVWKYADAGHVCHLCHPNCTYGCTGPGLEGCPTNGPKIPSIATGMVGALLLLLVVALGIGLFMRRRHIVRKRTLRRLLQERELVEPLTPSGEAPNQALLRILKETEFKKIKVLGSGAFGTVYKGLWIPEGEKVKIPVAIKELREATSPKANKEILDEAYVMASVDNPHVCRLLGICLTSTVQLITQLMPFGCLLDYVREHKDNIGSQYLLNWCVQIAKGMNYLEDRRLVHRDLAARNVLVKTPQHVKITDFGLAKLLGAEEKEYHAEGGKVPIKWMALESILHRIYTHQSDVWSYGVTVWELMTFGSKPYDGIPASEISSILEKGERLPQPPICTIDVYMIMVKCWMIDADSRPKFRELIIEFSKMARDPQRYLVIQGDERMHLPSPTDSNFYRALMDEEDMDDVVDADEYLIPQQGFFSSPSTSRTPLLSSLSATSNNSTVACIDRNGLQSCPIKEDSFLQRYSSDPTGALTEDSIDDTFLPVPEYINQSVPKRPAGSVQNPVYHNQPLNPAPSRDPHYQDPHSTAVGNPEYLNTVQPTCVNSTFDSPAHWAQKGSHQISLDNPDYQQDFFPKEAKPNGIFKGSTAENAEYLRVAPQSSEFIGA
Chain of EGFR L858R/C797S (P00533 25-1210 C797S/L858R): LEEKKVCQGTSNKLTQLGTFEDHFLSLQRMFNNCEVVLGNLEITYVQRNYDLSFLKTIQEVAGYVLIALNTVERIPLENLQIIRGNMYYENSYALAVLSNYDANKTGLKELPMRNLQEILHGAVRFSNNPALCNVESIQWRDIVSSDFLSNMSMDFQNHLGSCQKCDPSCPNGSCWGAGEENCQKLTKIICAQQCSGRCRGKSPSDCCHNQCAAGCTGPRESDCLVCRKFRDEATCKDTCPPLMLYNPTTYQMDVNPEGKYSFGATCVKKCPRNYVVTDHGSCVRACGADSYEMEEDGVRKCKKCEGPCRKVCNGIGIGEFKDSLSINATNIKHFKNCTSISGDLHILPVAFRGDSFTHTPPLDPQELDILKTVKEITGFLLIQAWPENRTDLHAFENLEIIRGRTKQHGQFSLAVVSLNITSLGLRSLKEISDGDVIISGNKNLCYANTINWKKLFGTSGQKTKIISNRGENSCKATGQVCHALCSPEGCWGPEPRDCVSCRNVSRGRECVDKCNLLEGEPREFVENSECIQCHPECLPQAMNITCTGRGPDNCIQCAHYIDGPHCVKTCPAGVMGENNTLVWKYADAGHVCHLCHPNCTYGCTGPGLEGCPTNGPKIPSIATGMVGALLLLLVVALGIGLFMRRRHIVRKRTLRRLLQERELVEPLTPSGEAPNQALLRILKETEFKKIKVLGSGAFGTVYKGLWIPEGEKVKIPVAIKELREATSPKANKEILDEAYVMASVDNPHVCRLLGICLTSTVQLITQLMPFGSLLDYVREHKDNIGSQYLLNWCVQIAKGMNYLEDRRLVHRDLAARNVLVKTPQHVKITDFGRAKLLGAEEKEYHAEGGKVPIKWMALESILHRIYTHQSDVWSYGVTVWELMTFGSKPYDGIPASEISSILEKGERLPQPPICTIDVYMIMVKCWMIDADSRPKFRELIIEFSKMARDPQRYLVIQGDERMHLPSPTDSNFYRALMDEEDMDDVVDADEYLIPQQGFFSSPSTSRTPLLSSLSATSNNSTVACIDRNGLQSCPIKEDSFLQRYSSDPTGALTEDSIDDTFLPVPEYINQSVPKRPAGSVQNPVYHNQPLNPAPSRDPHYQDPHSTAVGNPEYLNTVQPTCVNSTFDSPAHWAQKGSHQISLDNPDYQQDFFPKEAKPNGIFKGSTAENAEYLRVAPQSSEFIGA
Chain of EGFR L858R/T790M/C797S (P00533 25-1210 T790M/C797S/L858R): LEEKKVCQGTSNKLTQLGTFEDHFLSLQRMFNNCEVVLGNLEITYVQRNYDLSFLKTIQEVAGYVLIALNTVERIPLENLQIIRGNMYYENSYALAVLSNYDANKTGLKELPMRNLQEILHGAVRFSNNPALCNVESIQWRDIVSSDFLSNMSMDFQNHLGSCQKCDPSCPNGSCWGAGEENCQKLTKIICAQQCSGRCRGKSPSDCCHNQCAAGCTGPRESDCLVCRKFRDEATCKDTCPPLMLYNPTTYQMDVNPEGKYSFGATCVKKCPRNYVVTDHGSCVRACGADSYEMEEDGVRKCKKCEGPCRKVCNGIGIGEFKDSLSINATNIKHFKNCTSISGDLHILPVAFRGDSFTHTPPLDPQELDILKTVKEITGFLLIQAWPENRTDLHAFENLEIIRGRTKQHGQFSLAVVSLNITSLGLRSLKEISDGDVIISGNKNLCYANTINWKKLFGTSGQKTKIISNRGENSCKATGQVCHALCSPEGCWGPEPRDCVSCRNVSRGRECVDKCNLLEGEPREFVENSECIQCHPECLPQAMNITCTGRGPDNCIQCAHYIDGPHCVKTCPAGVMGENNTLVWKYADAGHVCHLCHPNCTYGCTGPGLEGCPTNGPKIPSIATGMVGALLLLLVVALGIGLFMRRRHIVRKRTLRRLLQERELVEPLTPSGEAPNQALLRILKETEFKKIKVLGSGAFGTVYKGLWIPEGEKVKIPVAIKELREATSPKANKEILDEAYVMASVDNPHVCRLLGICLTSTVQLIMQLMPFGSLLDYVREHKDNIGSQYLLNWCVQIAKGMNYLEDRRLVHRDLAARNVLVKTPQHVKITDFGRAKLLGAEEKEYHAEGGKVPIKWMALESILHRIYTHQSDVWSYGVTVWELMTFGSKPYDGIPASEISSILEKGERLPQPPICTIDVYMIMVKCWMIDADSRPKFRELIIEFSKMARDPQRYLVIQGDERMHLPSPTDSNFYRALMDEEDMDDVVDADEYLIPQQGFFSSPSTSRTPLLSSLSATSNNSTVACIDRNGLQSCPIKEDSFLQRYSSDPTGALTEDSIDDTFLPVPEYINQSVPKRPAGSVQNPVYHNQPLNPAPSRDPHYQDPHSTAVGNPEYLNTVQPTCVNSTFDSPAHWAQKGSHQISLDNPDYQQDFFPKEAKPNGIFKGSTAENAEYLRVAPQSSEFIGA

Consider `O=C(c1cnc(Nc2ccnc(-c3cnn(S(=O)(=O)C4CC4)c3)n2)cc1NC1CCC(NCCN2CC(F)C2)CC1)C1CC1` (stereo not shown) [Example 55, Cyclopropyl(6-((2-(1-(cyclopropylsulfonyl)-1H-pyrazol-4-yl)pyrimidin-4-yl)amino)-4-((4-((2-(3-fluoroazetidin-1-yl)ethyl)amino)cyclohexyl)amino)pyridin-3-yl)methanone], for which the IC50 against EGFR del19/T790M/C797S (setting [1]) is 1 nM; against EGFR L858R/T790M/C797S (setting [2]), 1.9 nM; on EGFR del19/C797S (setting [3]), 35.7 nM; against EGFR L858R/C797S (setting [4]) it was 85 nM; against EGFR wildtype (WT) (setting [5]), more than 10000 nM.
The like results for `O=C(c1cnc(Nc2ccnc(-c3cnn(S(=O)(=O)C4CC4)c3)n2)cc1NC1CCC(NCCN2CCCCC2)CC1)C1CC1` (stereo not shown) [Example 56, Cyclopropyl(6-((2-(1-(cyclopropylsulfonyl)-1H-pyrazol-4-yl)pyrimidin-4-yl)amino)-4-((4-((2-(piperidin-1-yl)ethyl)amino)cyclohexyl)amino)pyridin-3-yl)methanone] were, in that order, 1 nM, 1.2 nM, 7.6 nM, 12.2 nM and 6300 nM.
The like results for `CN(C)C1CCN(CCNC2CCC(Nc3cc(Nc4ccnc(-c5cnn(S(=O)(=O)C6CC6)c5)n4)ncc3C(=O)C3CC3)CC2)CC1` (stereo not shown) [Example 57, Cyclopropyl(6-((2-(1-(cyclopropylsulfonyl)-1H-pyrazol-4-yl)pyrimidin-4-yl)amino)-4-((4-((2-(4-(dimethylamino)piperidin-1-yl)ethyl)amino)cyclohexyl)amino)pyridin-3-yl)methanone] were, in that order, 0.6 nM, 1 nM, 18 nM, 10.7 nM and more than 10000 nM.
Regarding `CN(C)C[C@H]1CC[C@H](CNc2cc(Nc3ccnc(-c4cnn(S(=O)(=O)C5CC5)c4)n3)ncc2C(=O)C2CC2)CC1` [Example 58, Cyclopropyl(6-((2-(1-(cyclopropylsulfonyl)-1H-pyrazol-4-yl)pyrimidin-4-yl)amino)-4-((((1r,4r)-4-((dimethylamino)methyl)cyclohexyl)methyl)amino)pyridin-3-yl)methanone], the IC50 at EGFR del19/T790M/C797S (setting [6]) is 0.1 nM; at EGFR L858R/T790M/C797S (setting [7]), 0.1 nM; at EGFR del19/C797S (setting [8]), 0.4 nM; at EGFR L858R/C797S (setting [9]) it was 2.4 nM; at EGFR wildtype (WT) (setting [10]), 3.6 nM.
Consider `CN(C)C[C@H]1CC[C@H](CNc2cc(Nc3ccnc(-c4cn[nH]c4)n3)ncc2C(=O)C2CC2)CC1` [Example 59, (6-((2-(1H-Pyrazol-4-yl)pyrimidin-4-yl)amino)-4-((((1r,4r)-4-((dimethylamino)methyl)cyclohexyl)methyl)amino)pyridin-3-yl)(cyclopropyl)methanone], for which the IC50 worked out at 1.2 nM at EGFR del19/T790M/C797S (setting [6]); 5.7 nM on EGFR L858R/T790M/C797S (setting [7]); 207 nM at EGFR del19/C797S (setting [8]); 67.9 nM on EGFR L858R/C797S (setting [9]); 136 nM on EGFR wildtype (WT) (setting [10]).
The like results for `CN(C)C[C@H]1CC[C@H](COc2cc(Nc3ccnc(-c4cnn(S(=O)(=O)C5CC5)c4)n3)ncc2C(=O)C2CC2)CC1` [Example 66, Cyclopropyl(6-((2-(1-(cyclopropylsulfonyl)-1H-pyrazol-4-yl)pyrimidin-4-yl)amino)-4-(((1r,4r)-4-((dimethylamino)methyl)cyclohexyl)methoxy)pyridin-3-yl)methanone] were, in that order, 0.1 nM, 0.4 nM, 11.1 nM, 101 nM and 148 nM.
The like results for `NC[C@H]1CC[C@H](CNc2cc(Nc3ccnc(-c4cnn(S(=O)(=O)C5CC5)c4)n3)ncc2C(=O)C2CC2)CC1` [Example 67, (4-((((1r,4r)-4-(Aminomethyl)cyclohexyl)methyl)amino)-6-((2-(1-(cyclopropylsulfonyl)-1H-pyrazol-4-yl)pyrimidin-4-yl)amino)pyridin-3-yl)(cyclopropyl)methanone] were, in that order, 0.2 nM, 0.2 nM, 0.7 nM, 4.1 nM and 9.3 nM.
The like results for `CC(=O)NC[C@H]1CC[C@H](CNc2cc(Nc3ccnc(-c4cnn(S(=O)(=O)C5CC5)c4)n3)ncc2C(=O)C2CC2)CC1` [Example 68, N-(((1r,4r)-4-(((5-(Cyclopropanecarbonyl)-2-((2-(1-(cyclopropylsulfonyl)-1H-pyrazol-4-yl)pyrimidin-4-yl)amino)pyridin-4-yl)amino)methyl)cyclohexyl)methyl)acetamide] were, in that order, 1 nM, 0.5 nM, 1 nM, 11.8 nM and 14.9 nM.
In the case of `CC(C)NC[C@H]1CC[C@H](CNc2cc(Nc3ccnc(-c4cnn(S(=O)(=O)C5CC5)c4)n3)ncc2C(=O)C2CC2)CC1` [Example 69, Cyclopropyl(6-((2-(1-(cyclopropylsulfonyl)-1H-pyrazol-4-yl)pyrimidin-4-yl)amino)-4-((((1r,4r)-4-((isopropylamino)methyl)cyclohexyl)methyl)amino)pyridin-3-yl)methanone], the IC50 came to 0.1 nM on EGFR del19/T790M/C797S (setting [6]); 0.1 nM at EGFR L858R/T790M/C797S (setting [7]); 0.8 nM on EGFR del19/C797S (setting [8]); 9.2 nM at EGFR L858R/C797S (setting [9]); 7.5 nM at EGFR wildtype (WT) (setting [10]).
For the compound `O=C(c1cnc(Nc2ccnc(-c3cnn(S(=O)(=O)C4CC4)c3)n2)cc1NC[C@H]1CC[C@H](CNC2CCCC2)CC1)C1CC1` [Example 70, (4-((((1r,4r)-4-((Cyclopentylamino)methyl)cyclohexyl)methyl)amino)-6-((2-(1-(cyclopropylsulfonyl)-1H-pyrazol-4-yl)pyrimidin-4-yl)amino)pyridin-3-yl)(cyclopropyl)methanone], the IC50 on EGFR del19/T790M/C797S (setting [6]) turned out to be 0.3 nM; on EGFR L858R/T790M/C797S (setting [7]) it was 0.4 nM; at EGFR del19/C797S (setting [8]) it was 2.7 nM; at EGFR L858R/C797S (setting [9]), 14.4 nM; at EGFR wildtype (WT) (setting [10]), 24.2 nM.
As to `CC(C)Nc1cc(Nc2ccnc(-c3cnn(S(=O)(=O)C4CC4)c3)n2)ncc1C(=O)NCCF` [Example 74, 6-((2-(1-(Cyclopropylsulfonyl)-1H-pyrazol-4-yl)pyrimidin-4-yl)amino)-N-(2-fluoroethyl)-4-(isopropylamino)nicotinamide], the IC50 at EGFR del19/T790M/C797S (setting [1]) was 4.2 nM; on EGFR del19/T790M/C797S (setting [6]), 6.3 nM; on EGFR L858R/T790M/C797S (setting [2]), 5.7 nM; at EGFR del19/C797S (setting [3]) it was 182 nM; at EGFR del19/C797S (setting [8]), 94.6 nM; at EGFR L858R/C797S (setting [4]), 430 nM. For the same compound, the IC50 is more than 10000 nM against EGFR wildtype (WT) (setting [5]) and 393 nM at EGFR wildtype (WT) (setting [10]).
As to `C[C@]1(O)CC[C@@H](Nc2cc(Nc3ccnc(-c4cnn(S(=O)(=O)C5CC5)c4)n3)ncc2C(=O)NCCF)CC1` [Example 76, 6-((2-(1-(Cyclopropylsulfonyl)-1H-pyrazol-4-yl)pyrimidin-4-yl)amino)-N-(2-fluoroethyl)-4-(((1s,4s)-4-hydroxy-4-methylcyclohexyl)amino)nicotinamide], the IC50 was 0.6 nM at EGFR del19/T790M/C797S (setting [1]); 0.2 nM on EGFR del19/T790M/C797S (setting [6]); 0.7 nM against EGFR L858R/T790M/C797S (setting [2]); 0.1 nM on EGFR L858R/T790M/C797S (setting [7]); 2.3 nM at EGFR del19/C797S (setting [3]); 0.9 nM on EGFR del19/C797S (setting [8]). Moreover, the IC50 against EGFR L858R/C797S (setting [4]) was 28.9 nM; at EGFR L858R/C797S (setting [9]), 2.7 nM; on EGFR wildtype (WT) (setting [5]), more than 10000 nM; on EGFR wildtype (WT) (setting [10]), 12 nM.
Take `O=C(NCCF)c1cnc(Nc2ccnc(-c3cnn(S(=O)(=O)C4CC4)c3)n2)cc1N[C@H]1CC[C@@H](NCCF)CC1` [Example 77, 6-((2-(1-(Cyclopropylsulfonyl)-1H-pyrazol-4-yl)pyrimidin-4-yl)amino)-N-(2-fluoroethyl)-4-(((1s,4s)-4-((2-fluoroethyl)amino)cyclohexyl)amino)nicotinamide]: the IC50 was 0.9 nM against EGFR del19/T790M/C797S (setting [1]); 0.2 nM on EGFR del19/T790M/C797S (setting [6]); 1.6 nM against EGFR L858R/T790M/C797S (setting [2]); 0.1 nM at EGFR L858R/T790M/C797S (setting [7]); 19.3 nM at EGFR del19/C797S (setting [3]); 5.6 nM on EGFR del19/C797S (setting [8]). In addition, the IC50 on EGFR L858R/C797S (setting [4]) is 145 nM; at EGFR L858R/C797S (setting [9]), 9 nM; on EGFR wildtype (WT) (setting [5]), more than 10000 nM; at EGFR wildtype (WT) (setting [10]) it was 57.4 nM.
As to `O=C(N[C@H]1CC[C@H](O)CC1)c1cnc(Nc2ccnc(-c3cnn(S(=O)(=O)C4CC4)c3)n2)cc1N[C@H]1CC[C@@H](NCCF)CC1` [Example 80, 6-((2-(1-(Cyclopropylsulfonyl)-1H-pyrazol-4-yl)pyrimidin-4-yl)amino)-4-(((1s,4s)-4-((2-fluoroethyl)amino)cyclohexyl)amino)-N-((1r,4r)-4-hydroxycyclohexyl)nicotinamide], the IC50 at EGFR del19/T790M/C797S (setting [1]) is 0.8 nM; on EGFR L858R/T790M/C797S (setting [2]), 2.4 nM; against EGFR del19/C797S (setting [3]), 72.8 nM; against EGFR L858R/C797S (setting [4]), 170 nM; on EGFR wildtype (WT) (setting [5]) it was more than 10000 nM.
The like results for `CC1(CO)CCN(c2cc(Nc3ccnc(-c4cnn(S(=O)(=O)C5CC5)c4)n3)ncc2F)CC1` [Example 85, (1-(2-((2-(1-(Cyclopropylsulfonyl)-1H-pyrazol-4-yl)pyrimidin-4-yl)amino)-5-fluoropyridin-4-yl)-4-methylpiperidin-4-yl)methanol] were, in that order, 9.4 nM, 21.5 nM, 146 nM, 903 nM and more than 10000 nM.

Values taken from US11945798B2, “Substituted aminopyridine compounds as EGFR inhibitors” (YUHAN CORPORATION, priority 2021, dated 2024).
